# Assay results from article PMC10916352, “Safety Evaluation of a Prototypical Diazirine-Based Covalent Crosslinker and Molecular Adhesive” (International Journal of Toxicology, 2023).
# Where “and” joins values, the source holds several entries; their conditions need not be identical. Equal entries are not always repeated.
# Key:
# [1] = system: Salmonella typhimurium TA100; experiment: Bacterial reverse mutation test (Ames), strain TA100; assay type: cell-based; conditions: for Revertant Colonies (With S9), plates A, B, C / Revertant Colonies (Without S9), plates A, B, C: individual plates
# Procedure: The reverse mutation test was performed to determine the potential of BondLynx and/or its metabolites to induce reverse mutations at the histidine locus of Salmonella typhimurium.[26],[27] The test employs strains of Salmonella typhimurium carrying mutations in the genes involved in histidine production, such that they are only able to grow in histidine supplemented culture media. Upon exposure to mutagenic materials, these mutations may be reversed, thereby restoring the ability to grow in histidine-free media. When grown in the presence of the test compound on media with a small amount of histidine, tester strains grow briefly to allow the opportunity for mutation, followed by proliferation of revertant colonies upon depletion of the provided histidine. Thus, the number of revertant colonies following incubation is indicative of the ability of the test compound to induce mutations.
# Tests were performed on two strains of the bacteria (TA98 and TA100) in the absence and presence of an exogenous mammalian metabolic activation system (5% v/v S9). Positive controls and BondLynx were suspended in dimethyl sulfoxide (DMSO) for testing, and DMSO served as the vehicle control. Positive controls consisted of 2-nitrofluorene (10 μg/plate) for the TA98 strain without S9, methyl mesylate (650 μg/plate) for the TA100 strain without S9, and 2-aminoanthracene for both strains with S9 (1 μg/plate for TA98 and 5 μg/plate for TA100). Eight concentrations of BondLynx (1.7, 5.4, 17, 52, 164, 512, 1600 and 5000 μg/plate) were tested in triplicate. The vehicle control was tested in triplicate and the positive controls were tested singular.
# Test solutions were prepared by pre-incubating .1 mL fresh bacterial culture (10^9 cells/mL), .1 mL of a BondLynx dilution or control solution, and .5 mL of S9 mix or .1 M phosphate buffer for 30 min before adding to 3 mL of molten (45 ± 2°C) top agar. After mixing in a vortex, agar solutions were poured onto selective agar plates. Upon solidification, the prepared plates were inverted and incubated at 37.0 ± 1.0°C for 48 ± 4 h. Following incubation, revertant colonies were counted with a Sorcerer Colony Counter. The condition of the bacterial background lawn was evaluated macroscopically and/or microscopically using a dissecting microscope when considered necessary.
# [2] = In vitro skin irritation test, MTT viability; assay type: cell-based, human; conditions: human; 15 min exposure, 42 h post-incubation, relative to phosphate buffered saline; read-out: Cell Viability (%)
# Procedure: (§1) Tests were performed in triplicate. […] Following exposure, samples were rinsed with phosphate buffered saline until no test item remain, dried carefully, and placed in a new 2 mL well with pre-warmed Maintenance Medium to incubate for 42 h. After incubation, cell culture inserts were dried carefully, transferred into a 12-well plate prefilled with 2 mL MTT in phosphate buffered saline (.3 mg/mL), and incubated for 3 h. Tissue samples were then dried, and a biopsy punch was taken. The epidermis was separated from the collagen matrix, and both were extracted with 500 μL isopropanol and stored for 70 h refrigerated. The amount of extracted formazan was measured in duplicate for each sample by the OD570.
# [3] = system: EPISKIN Small Model (human epidermis model); experiment: In vitro skin irritation test, MTT viability; assay type: cell-based
# Procedure: as §1
# [4] = system: EpiDerm Skin Model (human-derived epidermal keratinocytes); experiment: In vitro skin corrosion test, MTT viability; conditions: for OD570 / OD570 corrected: tissues A and B, triplicate readings
# Procedure: The skin corrosion test was performed to assess the cytotoxic effects of BondLynx immediately following short-term exposure to the stratum corneum of the epidermis using an in vitro skin model.[32]–[34] Cytotoxicity to the skin model was expressed as the reduction of mitochondrial dehydrogenase activity measured by formazan production from 3-(4,5-dimethylthiazol-2-yl)-2,5-diphenyl tetrazolium bromide (MTT). […] BondLynx was checked for direct MTT reduction by incubating at least 50 mg of BondLynx with 1 mL MTT for 3 h to ensure that no blue/purple colour change or precipitate occurred. BondLynx was tested for colour interference by incubating at least 50 mg of BondLynx in water for 1 h and isopropanol for 2-3 h, centrifuging for 30 s at 16,000 g, and measuring the OD570 to ensure an optical density ≤.08 (after subtracting a Milli-Q water blank).
# Incubations were performed at 37.0-37.3°C, in an atmosphere with 77%-95% humidity containing 5.0 ± .5% CO2 in air unless otherwise stated. The positive control was 8.0 N aqueous potassium hydroxide (KOH) solution, and the negative control was Milli-Q water. BondLynx was applied directly to the test system as a solid and spread to match the size of the tissue. Tests were performed in duplicate.
# Skin tissue samples were refrigerated for 1 day upon receipt before placing in a six-well plate with .9 mL supplemented DMEM (just enough to reach the bottom of the tissue) 1 h before testing. A total of four samples were prepared per test item by applying 50 μL of the positive or negative control, or 25 μL of Milli-Q water (to moisten the tissue and ensure close contact) followed by 34.2-39.8 mg of BondLynx. Two samples of each test item were incubated for 3 min at room temperature, while the remaining samples were incubated for 1 h. After exposure, tissues were washed with phosphate buffered saline, dried carefully, and stored in 300 μL DMEM in a 24 well plate until the full six-well plate was dosed and rinsed.
# Cell viability after incubation was determined by replacing the DMEM with 300 μL MTT in supplemented DMEM (1 mg/mL) and incubating for 3 h. Tissues were then washed with phosphate buffer saline, and formazan was extracted with 2 mL isopropanol overnight. The amount of extracted formazan was measured in triplicate for each sample by the OD570.
# Optical density readings were corrected by subtracting the mean blank OD570. Cell viability was calculated as the percentage of the mean corrected OD570 for the test compound relative to the mean OD570 for the negative control (% Viability = ODtest/ODnegative control × 100%).
# [5] = TA100, without S9, 1.7 μg/plate
# [6] = TA100, without S9, 5.4 μg/plate
# [7] = TA100, without S9, 164 μg/plate
# [8] = TA100, without S9, 512 μg/plate
# [9] = TA100, without S9, 1600 μg/plate
# [10] = TA100, without S9, 5000 μg/plate
structure (smiles),measurement,setting,value
"FC(F)(F)C1(c2ccc(C(c3ccc(C4(C(F)(F)F)N=N4)cc3)(C(F)(F)F)C(F)(F)F)cc2)N=N1 [BondLynx, 2,2-bis-[4-[3-(trifluoromethyl)-3H-diazirin-3-yl]phenyl]hexafluoropropane]",Mutagenicity conclusion,"[1]; TA100, absence and presence of S9, 1.7 to 5000 μg/plate",non-mutagenic
same,Total number of revertants relative to concurrent vehicle control,"[1]; TA100, vs DMSO vehicle control",less than two times
same,"Revertant Colonies (With S9), Mean ± SD","[1]; TA100, with S9, 1.7 μg/plate",95 ± 3
same,"Revertant Colonies (With S9), plates A, B, C","[1]; TA100, with S9, 1.7 μg/plate",93 and 94 and 98
same,"Revertant Colonies (With S9), Mean ± SD","[1]; TA100, with S9, 5.4 μg/plate",92 ± 17
same,"Revertant Colonies (With S9), plates A, B, C","[1]; TA100, with S9, 5.4 μg/plate",98 and 73 and 105
same,"Revertant Colonies (With S9), Mean ± SD","[1]; TA100, with S9, 17 μg/plate",89 ± 15
same,"Revertant Colonies (With S9), plates A, B, C","[1]; TA100, with S9, 17 μg/plate",72 and 98 (2×)
same,"Revertant Colonies (With S9), Mean ± SD","[1]; TA100, with S9, 52 μg/plate",100 ± 16
same,"Revertant Colonies (With S9), plates A, B, C","[1]; TA100, with S9, 52 μg/plate",118 and 93 and 88
same,"Revertant Colonies (With S9), Mean ± SD","[1]; TA100, with S9, 164 μg/plate",96 ± 16
same,"Revertant Colonies (With S9), plates A, B, C","[1]; TA100, with S9, 164 μg/plate",83 and 113 and 91
same,"Revertant Colonies (With S9), Mean ± SD","[1]; TA100, with S9, 512 μg/plate",99 ± 16
same,"Revertant Colonies (With S9), plates A, B, C","[1]; TA100, with S9, 512 μg/plate",98 and 84 and 116
same,"Revertant Colonies (With S9), Mean ± SD","[1]; TA100, with S9, 1600 μg/plate",88 ± 8
same,"Revertant Colonies (With S9), plates A, B, C","[1]; TA100, with S9, 1600 μg/plate",84 and 82 and 97
same,"Revertant Colonies (With S9), Mean ± SD","[1]; TA100, with S9, 5000 μg/plate",96 ± 10
same,"Revertant Colonies (With S9), plates A, B, C","[1]; TA100, with S9, 5000 μg/plate",107 and 94 and 88
same,"Revertant Colonies (Without S9), Mean ± SD",[1]; [5],88 ± 3
same,"Revertant Colonies (Without S9), plates A, B, C",[1]; [5],91 and 86 (2×)
same,"Revertant Colonies (Without S9), Mean ± SD",[1]; [6],112 ± 15
same,"Revertant Colonies (Without S9), plates A, B, C",[1]; [6],127 and 110 and 98
same,"Revertant Colonies (Without S9), Mean ± SD","[1]; TA100, without S9, 17 μg/plate",107 ± 7
same,"Revertant Colonies (Without S9), plates A, B, C","[1]; TA100, without S9, 17 μg/plate",114 and 101 and 105
same,"Revertant Colonies (Without S9), Mean ± SD","[1]; TA100, without S9, 52 μg/plate",102 ± 22
same,"Revertant Colonies (Without S9), plates A, B, C","[1]; TA100, without S9, 52 μg/plate",105 and 122 and 78
same,"Revertant Colonies (Without S9), Mean ± SD",[1]; [7],100 ± 4
same,"Revertant Colonies (Without S9), plates A, B, C",[1]; [7],95 and 103 and 102
same,"Revertant Colonies (Without S9), Mean ± SD",[1]; [8],91 ± 17
same,"Revertant Colonies (Without S9), plates A, B, C",[1]; [8],84 and 110 and 79
same,"Revertant Colonies (Without S9), Mean ± SD",[1]; [9],91 ± 12
same,"Revertant Colonies (Without S9), plates A, B, C",[1]; [9],82 and 86 and 105
same,"Revertant Colonies (Without S9), Mean ± SD",[1]; [10],102 ± 13
same,"Revertant Colonies (Without S9), plates A, B, C",[1]; [10],91 and 116 and 99
same,Cytotoxicity (condition of microcolony lawn),"[1]; absence of S9, higher concentrations",slight thinning of the microcolony lawn
same,Cytotoxicity (condition of microcolony lawn),"[1]; presence of S9, any tested dose level",toxicity was not observed
same,viability at 15 min,[2],106%
same,Mean ± SD (OD570 corrected),"[3]; 15 min exposure, 42 h post-incubation",1.019 ± .011
same,OD570,"[3]; 15 min exposure, 42 h post-incubation, tissues A-C, duplicate readings",1.0621 and 1.0517 and 1.0668 and 1.0420 and 1.0901 and 1.0602
same,Skin irritation classification,[3]; viability >50%,non-irritant
same,Mean ± SD (OD570 corrected),[4]; 3 min exposure,1.7 ± 0.1
same,OD570,[4]; 3 min exposure,1.8819 and 1.869 and 1.8445 and 1.7365 and 1.7069 and 1.7026
same,OD570 corrected,[4]; 3 min exposure,1.837 and 1.8241 and 1.7996 and 1.6916 and 1.662 and 1.6577
same,Mean ± SD (OD570 corrected),[4]; 1 h exposure,1.85 ± .09
same,OD570,[4]; 1 h exposure,1.9919 and 1.9396 and 1.9528 and 1.8727 and 1.8128 and 1.8033
same,OD570 corrected,[4]; 1 h exposure,1.947 and 1.8947 and 1.9079 and 1.8278 and 1.7679 and 1.7584
same,Skin corrosion classification,[4]; viability >50% after 3 min and >15% after 1 h,not corrosive
